Converted amounts (≈) assume the structure as drawn.

The nature of series [1]: Aqueous solubility of Bezuclastinib. The class given is physicochemical. To be noted: aqueous buffer. On the procedure: Compound (I) was first disclosed in U.S. Pat. No. 9,676,748 B2 and U.S. Pat. No. 10,301,280 B2. In the almost 10 years since, Compound (I) has proven to be difficult to prepare in a tablet form suitable for commercial development. In particular, Compound (I) has a very high melting point (>365° C.) and is practically insoluble in aqueous conditions (0.32 ug/mL at pH 7.0), and most organic solvents. In addition, no suitable salt or co-crystal has been found for of Compound (I), which itself readily crystalizes when forming tablets. Finally, existing tablet forms of Compound (I) allowed a relatively small proportion of API to be loaded into the tablet form, necessitating repeated dosing of many tablets, potentially jeopardizing patient compliance.
(§1) Bezuclastinib has a high melting point and is insoluble in aqueous and most organic solvents. No suitable salt or co-crystal was found.

Series [2] is described as follows: Pka of Bezuclastinib (Table 1). In kind it is physicochemical. To be noted: Weak Base.
From the text: as §1

The nature of series [3]: Solubility in organic solvents. The class given is physicochemical. To be noted: organic solvent or mixture, thermodynamic from solid, 21° C., read-out: free drug concentration (solubility). On the procedure:
(Table 3). A saturated suspension was prepared in each solvent and the samples were stirred overnight using a magnetic stirrer. The free drug concentration was determined by subjecting the samples to 7 minutes in an ultracentrifuge at 470,000× gravity. A 100 μL aliquot was withdrawn and diluted in 5× in DMSO and Methanol and tested by the HPLC method. Three (3) replicates were performed in each solvent. Bezuclastinib was poorly soluble (free drug concentration <5.0 mg/mL), other than DMSO (free drug concentration <20 mg/mL).

A short description of series [4]: LogD of Bezuclastinib (Table 1). The class given is physicochemical.
From the text: as §1

For series [5] the following is noted: human, in vivo, po.
From the text: (§2) This Example summarizes a single-center, open-label, 2-period, randomized, crossover study of Formulations A and B of bezuclastinib at single ascending dose levels in healthy adult subjects to assess pharmacokinetics and relative bioavailability. Subjects were randomized to receive either a single dose of Formulation A fasted, or a single dose of Formulation B fasted. After a washout period of 21 days, subjects were then crossed over to receive the other formulation. […] Blood draws were taken pre-dose, and 0.5, 1, 2, 3, 4, 6, 8, 12, 16, 24, 48, 72, 96, 120, 144, 168, 192, and 336 h post-dose.
Series [6] can be described thus: Non-sink dissolution test in simulated intestinal fluid, no gastric transfer. In kind it is physicochemical. To be noted: SIF 0.5% bile salt, pH 6.5, 37° C., 1 mg API per mL. The procedure: Non-sink dissolution testing was used to determine the kinetic solubility as well as the extent and duration of supersaturation of amorphous dispersions. Spray dried samples were examined under non sink dissolution testing conditions in FIGS. 2-5. Non sink testing was performed with and without a gastric transfer at various bile salt concentrations in biorelevant media including simulated intestinal fluid at pH 6.5 and FaSSIF at pH 6.5. Total drug and free drug concentration were determined as described in Example 2.
Samples were loaded at a concentration of 1 mg API per mL of media. The SDD's tested were 10% and 20% drug loading HPMCAS-L SDD, 20% HPMCAS-H and 20% HPMCAS-L with 5 mg/mL HPMCAS-H added.

A short description of series [7]: Influence of pH on solubility. The conditions noted are these: Simulated Intestinal Fluid with 0.5% bile salts, fassgf or other biorelevant, thermodynamic from solid; SIF with 0.5% bile salts, 37° C., pH 4.0, 5.5 and 6.0; read-out: free drug concentration (solubility). In kind it is physicochemical. The procedure: A saturated bezuclastinib suspension was prepared in each media and the samples were stirred overnight using a magnetic stirrer. The total drug concentration was determined by subjecting the samples to 3 minutes in a microcentrifuge at 19,500× gravity. The free drug concentration was determined by subjecting the samples to 7 minutes in an ultracentrifuge at 470,000× gravity. A 100 μL aliquot was withdrawn and diluted in 5× in DMSO and Methanol and tested by the HPLC method. Six (6) replicates were performed in each media. In all conditions, bezuclastinib was poorly soluble (free drug concentration <20 μg/mL).

A short description of a further series: clinical. To be noted: human, in vivo, po.
Series [8] is described as follows: Solubility in biorelevant media. In kind it is physicochemical. To be noted: fassgf or other biorelevant, thermodynamic from solid; all biorelevant media (0.01N HCl, FaSSIF, SIF, FaSSGF), 37° C.; read-out: free drug concentration (solubility). The procedure: Biorelevant media included 0.01N hydrochloric acid, Fast State Simulated Intestinal Fluid (FaSSIF) with and without bile salts, Simulated Intestinal Fluid (SIF) with various concentrations of bile salts (0, 0.5% and 1%) and Fasted State Simulated Gastric Fluid (FaSSGF). A saturated suspension was prepared in each media and the samples were stirred overnight using a magnetic stirrer. The free drug concentration was determined by subjecting the samples to 7 minutes in an ultracentrifuge at 470,000× gravity. A 100 μL aliquot was withdrawn and diluted in 5× in DMSO and Methanol and tested by the HPLC method described in Table 2. Six (6) replicates were performed in each media. In all cases, bezuclastinib was practically insoluble (free drug concentration ≤1.2 μg/mL).

In series [9] the test system is cells with activating c-kit mutations in the catalytic region. The conditions noted are these: Ma et al., 2002; cited from earlier work.

From the text for clinical: as §2

With `Cc1n[nH]c(C(=O)Nc2cnc3[nH]c(-c4ccccc4)cc3c2)c1C` [Bezuclastinib, 3,4-dimethyl-N-(2-phenyl-1H-pyrrolo[2,3-b]pyridin-5-yl)-1H-pyrazole-5-carboxamide], the solubility in [1] (aqueous conditions, pH 7.0, read-out: solubility in aqueous conditions) was 0.32 µg/mL (≈ 0.966 µM); in [1] (aqueous medium, pH = 7.0, read-out: Aqueous solubility) it was 0.31 µg/mL (≈ 0.935 µM); in series [3] (DMSO) it was less than 20000 µg/mL; in series [3] (organic solvents of Table 3 other than DMSO) it was less than 5000 µg/mL; in [7], less than 20 µg/mL; in [8], no more than 1.2 µg/mL. Besides, the pKa (as a rule, the pH at which an ionisable group is half protonated) in series [2] was 2.86. Besides, the log distribution coefficient (logD) – broadly, the decadic logarithm of the distribution of all forms, ionised or not, between an organic phase and buffer at a given pH – in [4] turned out to be 3.46. Also, the “median time to maximum concentration” value in series [5] was 12 to 16 h. For the same compound, the “Microcentrifuge Assay @ 5 min (total drug)” value in series [6] (5 min) is 2.0 µg/mL. Besides, in series [6] (5 min), the “Ultracentrifuge Assay @ 5 min (free drug)” value was 1.5 µg/mL. In addition, the “Microcentrifuge Assay @ 60 min (total drug)” value in series [6] (60 min) was 3.4 µg/mL. In series [6] (60 min), the “Ultracentrifuge Assay @ 60 min (free drug)” value was 1.6 µg/mL. The “Microcentrifuge Assay @ 6 hrs (total drug)” value in [6] (6 hrs) is 2.0 µg/mL. Also, the “Ultracentrifuge Assay @ 6 hrs (free drug)” value in series [6] (6 hrs) was 1.7 µg/mL. In addition, the half-life (commonly the time needed for the level to fall by half in the phase considered) in “clinical” lay within 48.6 to 71.4 h.
On to `Cc1ccc(NC(=O)c2ccc(CN3CCN(C)CC3)cc2)cc1Nc1nccc(-c2cccnc2)n1` [STI571], for which the “inhibition of cells with c-kit mutations in the catalytic region” value in series [9] was “did not inhibit the cells”.

The record behind these values is patent US20240216347A1, “BEZUCLASTINIB FORMULATIONS” (Cogent Biosciences, Inc., priority 2022, published 2024).
